Reference: patent publication US12649734B2, “Bioavailable protein disulfide isomerase inhibitors” (THE CLEVELAND CLINIC FOUNDATION, priority 2020, dated 2026)

Columns and labels:
5TGM1-luc myeloma cells = test: 5TGM1-luc/C57BL/KaLwRij syngeneic mouse model of myeloma; assay type: in vivo
Method: FIGS. 8A & 8B provide graphs showing the stability of CCF642-34 and restriction of multiple myeloma in a syngeneic mouse model by PDIA1-inhibitor CCF642-34. (A) The stability of CCF642-34 was measured against oxidative metabolism by human liver microsomes. CCF642-34 (20 μM) was incubated with 0.25 mg/mL of human liver microsomes for 5 h. The residual compound at indicated time points was measured by HPLC (Agilent 1260 Infinity II) interfaced with reverse phase C18 column using 280 nm and 245 nm detection wavelength. The standard curve of known concentrations of CCF642-34 was obtained from the area under the peak at two wavelengths, and the remaining CCF642-34 was estimated. Data are representative of two independent experiments. (B) 5TGM1-luc/C57BL/KaLwRij mouse models of myeloma (3 males, 3 females per treatment group) were engrafted with 2×10^6 5TGM1-luc cells via tail vein injection and treated 3 times a week for 8 weeks per oral gavage with 20 mg/kg of CCF642-34 dissolved in 10% 2-hydroxy-propyl-o-cyclodextrin. The survival of each group was monitored, and Kaplan-Meier survival analysis was performed. All control animals required euthanasia before 52 days (due to paraparesis, weight loss, poor general condition), while 3 out of 6 mice treated with CCF642-34 lived beyond 6 months with no sign of disease.
Mouse experiment: Animal care and procedures were conducted in accordance with institutional guidelines approved by the Institutional Animal Care and Use Committee (IACUC). […]
To evaluate whether CCF642-34 achieved anti-myeloma efficacy after oral administration in vivo we used the 5TGM1-luc/C57BL/KaLwRij syngeneic mouse model. […] Mouse weight was monitored along with systemic symptoms of distress or disease. […] The intensity of luminescence was not good enough for the detection of bioluminescence, which is a common issue in the imaging of B57 black 6 mice. Therefore, the inventors primarily monitored the survival, and the disease burden was determined in the bone marrow cells at the time of sacrifice of a moribund mice. […]

MM1.S-luc = test: Chou and Talalay drug combination test with BTZ; assay type: cell-based, human; conditions: combined with BTZ; lower dose range affecting 70% of myeloma cells or less
Method: Cell vi-ability and LD50 for inhibitors were measured in 96 well culture plates (2×10^4 cells/well) after 72 h of treatment using CellTiter-Glo® Luminescent Cell Viability Assay (Promega, Madison, WI, USA). (A) Cell survival assay with MM1.S.luc and BTZ-resistant MM1.S.luc cells. […] (C) Comparison of PDIA1 protein levels in MM1.S.luc and MM1.S.luc BTZ-resistant cells. Band intensity was calculated with Image Lab Version 5.2.1. (D) Cell survival assay with 5TGM1.luc and (E) BTZ-resistant 5TGM1.luc cells. (F) MM1.S cell line was exposed to CCF642-34, and BTZ for 72 h for synergistic drug combination test according to Chou and Talalay method. If the […] remained less than 1, the two drugs were determined as synergistic. […] The number of colony-forming units were plotted for each treatment.

[1] = tested on: RPMI-8226 cells vs CD34+ HSPCs derived from healthy bone marrow; test: In vitro colony-forming assay, myeloma cells versus normal bone marrow CD34+ cells; assay type: cell-based, human; conditions: colonies scored on day 14
Method: In vitro colony-forming assays: Mononuclear cells derived from bone marrow or purified CD34+ cells from a healthy donor, cord blood, or MM cell RPMI-8226 were grown in semi-solid methylcellulose media (MethoCult™, H4435; STEMCELL Technologies) in the presence of indicated compounds and concentrations. A total of 10,000/mL normal bone marrow CD34+ cells and 1000/mL RPMI-8226 cells were plat-ed, and colonies were scored on day 14.

[2] = 20 mg/kg oral gavage 3 times a week for 8 weeks

## NC(CC1CNc2ccccc21)C(=O)NCCCOc1ccc(N2C(=O)/C(=C/c3ccc([N+](=O)[O-])s3)SC2=S)cc1 (centres unmarked) [CCF642-34]
5TGM1-luc myeloma cells; [2]
  mice living beyond 6 months with no sign of disease: 3 out of 6
  mice living beyond 180 days with no sign of disease: 3 out of 6
5TGM1-luc myeloma cells; oral treatment, 8 weeks
  adverse events as assessed by weight and animal behavior: no obvious adverse events
MM1.S-luc
  combination index (CI): below 1
[1]
  potency in restricting colony formation of RPMI-8226 compared to CD34+ HSPCs: 20 fold
